From patent publication US8629157B2, “Pyrrolidine compounds which modulate the CB2 receptor” (Boehringer Ingelheim International GmbH, priority 2009, dated 2014)
pEC50: −log10 of the molar value.

Target: human CB2R (Homo sapiens, UniProt P34972)
Test: CB2R mediated modulation of cAMP synthesis
Type: cell-based
Details: not given
Protocol: B. CB2R Mediated Modulation of cAMP Synthesis:
Compounds of the invention were evaluated for their CB2 agonist or inverse agonistic activity in accordance with the following experimental method.
CHO cells expressing human CB2R (Euroscreen) were plated at a density of 5000 cells per well in 384 well plates and incubated overnight at 37° C. After removing the media, the cells were treated with test compounds diluted in stimulation buffer containing 1 mM IBMX, 0.25% BSA and 10 uM Forskolin. The assay was incubated for 30 minutes at 37° C. Cells were lysed and the cAMP concentration was measured using DiscoverX-XS cAMP kit, following the manufacturer's protocol. In this setting, agonists will decrease forskolin induced production of cAMP while inverse agonists will further increase forskolin induced production of cAMP. EC50 of agonists were calculated as follows. The maximal amount of cAMP produced by forskolin compared to the level of cAMP inhibited by 1 uM CP55940 is defined as 100%. […] Data was analyzed using a four-parameter logistic model. (Model 205 of XLfit 4.0).

human CB2R, sequence (P34972 whole entry): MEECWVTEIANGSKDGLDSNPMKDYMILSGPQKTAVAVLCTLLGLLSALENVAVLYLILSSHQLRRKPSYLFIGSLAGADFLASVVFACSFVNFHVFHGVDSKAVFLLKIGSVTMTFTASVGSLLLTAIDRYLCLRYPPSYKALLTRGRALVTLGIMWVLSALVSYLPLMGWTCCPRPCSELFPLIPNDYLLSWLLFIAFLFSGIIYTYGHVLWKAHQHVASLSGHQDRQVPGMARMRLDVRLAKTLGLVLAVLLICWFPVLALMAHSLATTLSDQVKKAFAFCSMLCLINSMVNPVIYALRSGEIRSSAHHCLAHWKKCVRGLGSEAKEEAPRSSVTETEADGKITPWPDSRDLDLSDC

Compound | pEC50
CC(C)(C)c1cc(NC(=O)[C@@H]2CC(F)(F)CN2C(=O)C2CCC(F)(F)CC2)no1 [(S)-1-(4,4-Difluoro-cyclohexanecarbonyl)-4,4-difluoro-pyrrolidine-2-carboxylic acid (5-tert-butyl-isoxazol-3-yl)-amide] | 6.65
CC(C)(C)c1cc(NC(=O)[C@@H]2CCC(=O)N2c2ccc(Cl)cc2F)on1 [(S)-1-(4-Chloro-2-fluoro-phenyl)-5-oxo-pyrrolidine-2-carboxylic acid (3-tert-butyl-isoxazol-5-yl)-amide] | 7.09
CC(C)(C)c1cc(NC(=O)[C@@H]2CCC(=O)N2c2ccc(Cl)c(F)c2)on1 [(S)-1-(4-Chloro-3-fluoro-phenyl)-5-oxo-pyrrolidine-2-carboxylic acid (3-tert-butyl-isoxazol-5-yl)-amide] | 7.85
CC(C)(C)c1cc(NC(=O)[C@@H]2CCC(=O)N2c2ccc(Cl)c(F)c2)no1 [(S)-1-(4-Chloro-3-fluoro-phenyl)-5-oxo-pyrrolidine-2-carboxylic acid (5-tert-butyl-isoxazol-3-yl)-amide] | 7.90
Cc1cc(N2C(=O)CC[C@H]2C(=O)Nc2cc(C(C)(C)C)no2)ccc1Cl [(S)-1-(4-Chloro-3-methyl-phenyl)-5-oxo-pyrrolidine-2-carboxylic acid (3-tert-butyl-isoxazol-5-yl)-amide] | 7.62
Cc1cc(N2C(=O)CC[C@H]2C(=O)Nc2cc(C(C)(C)C)on2)ccc1Cl [(S)-1-(4-Chloro-3-methyl-phenyl)-5-oxo-pyrrolidine-2-carboxylic acid (5-tert-butyl-isoxazol-3-yl)-amide] | 7.23
CC(C)(C)c1cc(NC(=O)[C@@H]2CCCN2S(=O)(=O)c2ccc(Cl)cc2)no1 [(S)-1-(4-Chloro-benzenesulfonyl)-pyrrolidine-2-carboxylic acid (5-tert-butyl-isoxazol-3-yl)-amide] | 6.55
CC(C)(C)c1cc(NC(=O)[C@@H]2CCCN2Cc2ccc(Cl)cc2)on1 [(S)-1-(4-Chloro-benzyl)-pyrrolidine-2-carboxylic acid (3-tert-butyl-isoxazol-5-yl)-amide] | 8.64
CC(C)(C)c1cc(NC(=O)[C@]2(C)CCCN2c2ccc(Cl)cc2)no1 [(S)-1-(4-Chloro-phenyl)-2-methyl-pyrrolidine-2-carboxylic acid (5-tert-butyl-isoxazol-3-yl)-amide] | 9.68
C[C@@]1(C(=O)Nc2ccc(C(F)(F)F)cn2)CCCN1c1ccc(Cl)cc1 [(S)-1-(4-Chloro-phenyl)-2-methyl-pyrrolidine-2-carboxylic acid (5-trifluoromethyl-pyridin-2-yl)-amide] | 7.57
O=C(NCCC1CCCCC1)[C@@H]1CCC(=O)N1c1ccc(Cl)cc1 [(S)-1-(4-Chloro-phenyl)-5-oxo-pyrrolidine-2-carboxylic acid (2-cyclohexyl-ethyl)-amide] | 6.48
CC1CC(NC(=O)[C@@H]2CCC(=O)N2c2ccc(Cl)cc2)CC(C)(C)C1 (stereo partly drawn) [(S)-1-(4-Chloro-phenyl)-5-oxo-pyrrolidine-2-carboxylic acid (3,3,5-trimethyl-cyclohexyl)-amide] | 6.67
CC(C)c1cc(NC(=O)[C@@H]2CCC(=O)N2c2ccc(Cl)cc2)on1 [(S)-1-(4-Chloro-phenyl)-5-oxo-pyrrolidine-2-carboxylic acid (3-isopropyl-isoxazol-5-yl)-amide] | 6.54
CCCc1cc(NC(=O)[C@@H]2CCC(=O)N2c2ccc(Cl)cc2)on1 [(S)-1-(4-Chloro-phenyl)-5-oxo-pyrrolidine-2-carboxylic acid (3-propyl-isoxazol-5-yl)-amide] | 6.58
CC(C)(C)c1cc(NC(=O)[C@@H]2CCC(=O)N2c2ccc(Cl)cc2)sn1 [(S)-1-(4-Chloro-phenyl)-5-oxo-pyrrolidine-2-carboxylic acid (3-tert-butyl-isothiazol-5-yl)-amide] | 6.87
CC(C)(C)c1cccc(NC(=O)[C@@H]2CCC(=O)N2c2ccc(Cl)cc2)c1 [(S)-1-(4-Chloro-phenyl)-5-oxo-pyrrolidine-2-carboxylic acid (3-tert-butyl-phenyl)-amide] | 7.23
CC(C)(C)C1CCC(NC(=O)[C@@H]2CCC(=O)N2c2ccc(Cl)cc2)CC1 (stereo partly drawn) [(S)-1-(4-Chloro-phenyl)-5-oxo-pyrrolidine-2-carboxylic acid (4-tert-butyl-cyclohexyl)-amide] | 6.80

Compound | pEC50
Cc1ccc(NC(=O)[C@@H]2CCC(=O)N2c2ccc(Cl)cc2)nc1 [(S)-1-(4-Chloro-phenyl)-5-oxo-pyrrolidine-2-carboxylic acid (5-methyl-pyridin-2-yl)-amide] | 6.31
CC(C)(CO)c1cc(NC(=O)[C@@H]2CCC(=O)N2c2ccc(Cl)cc2)on1 [(S)-1-(4-Chloro-phenyl)-5-oxo-pyrrolidine-2-carboxylic acid [3-(2-hydroxy-1,1-dimethyl-ethyl)-isoxazol-5-yl]-amide] | 6.82
CC(C)(C)CC(C)(C)NC(=O)[C@@H]1CCCN1c1ccc(Cl)cc1 [(S)-1-(4-Chloro-phenyl)-pyrrolidine-2-carboxylic acid (1,1,3,3-tetramethyl-butyl)-amide] | 7.60
CC(=O)N1CCC(CNC(=O)[C@@H]2CCCN2c2ccc(Cl)cc2)CC1 [(S)-1-(4-Chloro-phenyl)-pyrrolidine-2-carboxylic acid (1-acetyl-piperidin-4-ylmethyl)-amide] | 10.82
CC(C)(C)SCCNC(=O)[C@@H]1CCCN1c1ccc(Cl)cc1 [(S)-1-(4-Chloro-phenyl)-pyrrolidine-2-carboxylic acid (2-tert-butylsulfanyl-ethyl)-amide] | 8.58
CC1CC(NC(=O)[C@@H]2CCCN2c2ccc(Cl)cc2)CC(C)(C)C1 (stereo partly drawn) [(S)-1-(4-Chloro-phenyl)-pyrrolidine-2-carboxylic acid (3,3,5-trimethyl-cyclohexyl)-amide] | 8.67
O=C(Nc1ccc(C(F)(F)F)c(F)c1)[C@@H]1CCCN1c1ccc(Cl)cc1 [(S)-1-(4-Chloro-phenyl)-pyrrolidine-2-carboxylic acid (3-fluoro-4-trifluoromethyl-phenyl)-amide] | 7.52
O=C(Nc1nc(-c2ccccc2)ns1)[C@@H]1CCCN1c1ccc(Cl)cc1 [(S)-1-(4-Chloro-phenyl)-pyrrolidine-2-carboxylic acid (3-phenyl-1,2,4-thiadiazol-5-yl)-amide] | 8.31
CCCc1cc(NC(=O)[C@@H]2CCCN2c2ccc(Cl)cc2)on1 [(S)-1-(4-Chloro-phenyl)-pyrrolidine-2-carboxylic acid (3-propyl-isoxazol-5-yl)-amide] | 8.62
O=C(Nc1nc(C2CCCCC2)cs1)[C@@H]1CCCN1c1ccc(Cl)cc1 [(S)-1-(4-Chloro-phenyl)-pyrrolidine-2-carboxylic acid (4-cyclohexyl-thiazol-2-yl)-amide] | 7.45
O=C(Nc1nc(C2CC2)cs1)[C@@H]1CCCN1c1ccc(Cl)cc1 [(S)-1-(4-Chloro-phenyl)-pyrrolidine-2-carboxylic acid (4-cyclopropyl-thiazol-2-yl)-amide] | 7.44
CCc1ccnc(NC(=O)[C@@H]2CCCN2c2ccc(Cl)cc2)c1 [(S)-1-(4-Chloro-phenyl)-pyrrolidine-2-carboxylic acid (4-ethyl-pyridin-2-yl)-amide] | 8.92
O=C(Nc1ccc(F)c(C(F)(F)F)c1)[C@@H]1CCCN1c1ccc(Cl)cc1 [(S)-1-(4-Chloro-phenyl)-pyrrolidine-2-carboxylic acid (4-fluoro-3-trifluoromethyl-phenyl)-amide] | 7.72
CC(C)(C)c1nc(NC(=O)[C@@H]2CCCN2c2ccc(Cl)cc2)sc1C#N [(S)-1-(4-Chloro-phenyl)-pyrrolidine-2-carboxylic acid (4-tert-butyl-5-cyano-thiazol-2-yl)-amide] | 7.50
CC(C)(C)C1CCC(NC(=O)[C@@H]2CCCN2c2ccc(Cl)cc2)CC1 (stereo partly drawn) [(S)-1-(4-Chloro-phenyl)-pyrrolidine-2-carboxylic acid (4-tert-butyl-cyclohexyl)-amide] | 8.13
CC(C)(C)c1csc(NC(=O)[C@@H]2CCCN2c2ccc(Cl)cc2)n1 [(S)-1-(4-Chloro-phenyl)-pyrrolidine-2-carboxylic acid (4-tert-butyl-thiazol-2-yl)-amide] | 7.52

Same assay, conditions: CHO cells expressing human CB2R; inhibition of forskolin-stimulated cAMP synthesis; mean; read-out: CB2 CAMP @ EC50 nM (mean)

EC50 | Compound
255 nM | O=C(Nc1nc2cc(Cl)ccc2[nH]1)[C@@H]1CCC(=O)N1c1ccc(Cl)cc1 [(S)-1-(4-Chloro-phenyl)-5-oxo-pyrrolidine-2-carboxylic acid (5-chloro-1H-benzimidazol-2-yl)-amide]
194 nM | COc1ccc(-c2nsc(NC(=O)[C@@H]3CCC(=O)N3c3ccc(Cl)cc3)n2)cc1 [(S)-1-(4-Chloro-phenyl)-5-oxo-pyrrolidine-2-carboxylic acid [3-(4-methoxy-phenyl)-1,2,4-thiadiazol-5-yl]-amide]
12.7 nM | O=C(Nc1nc2c(s1)CCCC2)[C@@H]1CCCN1c1ccc(Cl)cc1 [(S)-1-(4-Chloro-phenyl)-pyrrolidine-2-carboxylic acid (4,5,6,7-tetrahydro-benzothiazol-2-yl)-amide]
498 nM | Cc1nonc1CNC(=O)[C@@H]1CCCN1c1ccc(Cl)cc1 [(S)-1-(4-Chloro-phenyl)-pyrrolidine-2-carboxylic acid (4-methyl-furazan-3-ylmethyl)-amide]

Compound | EC50
CCC(C)c1cc(NC(=O)[C@@H]2CCC(=O)N2c2ccc(Cl)cc2)on1 (stereo partly drawn) [(S)-1-(4-Chloro-phenyl)-5-oxo-pyrrolidine-2-carboxylic acid (3-sec-butyl-isoxazol-5-yl)-amide] | 104 nM
